Where a name gives a salt, the structure may show the parent alone.
Biological target: T1, human P2Y12 receptor (Homo sapiens, UniProt Q9H244)
T1 construct: expressed in transfected cells; host or cells: Chinese Hamster Ovary (CHO) cells
Assay: P2Y12 receptor binding assay
Details: CHO cells with recombinant expression of the human P2Y12 receptor; tritium-labeled 2-methyl-S-ADP; 2 hours at room temperature
Procedure: Chinese Hamster Ovary (CHO) cells with recombinant expression of the human P2Y12 receptor were cultured in 24 well cell-culture plates. Cells were washed three times with binding buffer (50 mM Tris pH 7.4, 100 mM NaCl, 1 mM EDTA, 0.5% BSA). The cells were then incubated with 0.5 ml per well binding buffer containing tritium-labeled 2-methyl-thio-adenosine 5′-diphosphate (2-methyl-S-ADP) (between 100'000 and 300'000 dpm per well) and various concentrations of test compounds. After incubation at room temperature for 2 hours, cells were washed three times with binding buffer. Then, cells were solubilized by addition of 0.5 ml solubilization buffer (SDS, NaOH, EDTA). The content of each well was then transferred into beta-counter vials and 2.0 ml of Ultima Gold Scintillation liquid was added.

T1 sequence (Q9H244 whole entry): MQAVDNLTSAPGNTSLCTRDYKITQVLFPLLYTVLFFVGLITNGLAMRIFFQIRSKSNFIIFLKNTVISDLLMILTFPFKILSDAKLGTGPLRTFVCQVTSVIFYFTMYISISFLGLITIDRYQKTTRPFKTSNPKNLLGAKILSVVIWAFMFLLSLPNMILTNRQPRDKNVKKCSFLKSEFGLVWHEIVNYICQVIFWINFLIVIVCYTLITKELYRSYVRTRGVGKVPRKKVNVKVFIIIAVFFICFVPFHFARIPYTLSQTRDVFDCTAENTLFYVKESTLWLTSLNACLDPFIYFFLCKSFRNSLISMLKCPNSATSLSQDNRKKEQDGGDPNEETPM

| IC50 | Compound |
| --- | --- |
| 238 nM | CCOC(=O)N1CCN(C(=O)[C@H](CCC(=O)O)NC(=O)c2cc(OC3CCCN(C)C3)nc(-c3ccccc3)n2)CC1 (stereo partly drawn) [Example 6, 4-((S)-4-carboxy-2-{[6-(1-methyl-piperidin-3-yloxy)-2-phenyl-pyrimidine-4-carbonyl]-amino}-butyryl)-piperazine-1-carboxylic acid ethyl ester trifluoroacetate salt] |
| 126 nM | CCOC(=O)N1CCN(C(=O)[C@H](CCC(=O)O)NC(=O)c2cc(OC3CCOC3)nc(-c3ccccc3)n2)C(C)C1 (stereo partly drawn) [Example 10, ((S)-4-carboxy-2-{[2-phenyl-6-(tetrahydro-furan-3-yloxy)-pyrimidine-4-carbonyl]-amino}-butyryl)-3-methyl-piperazine-1-carboxylic acid ethyl ester] |
| 94 nM | CCOC(=O)N1CCN(C(=O)[C@H](CCc2nnn[nH]2)NC(=O)c2cc(OC3CCOC3)nc(-c3ccccc3)n2)CC1 (stereo partly drawn) [Example 17, 4-[(S)-2-{[2-phenyl-6-(tetrahydro-furan-3-yloxy)-pyrimidine-4-carbonyl]-amino}-4-(1H-tetrazol-5-yl)-butyryl]-piperazine-1-carboxylic acid ethyl ester] |

Second part, the compound before the results:

| Compound | IC50 |
| --- | --- |
| CCOC(=O)N1CCN(C(=O)[C@H](CCC(=O)O)NC(=O)c2cc(OCCOCCOC)nc(-c3ccccc3)n2)CC1 [Example 1, 4-[(S)-4-carboxy-2-({6-[2-(2-methoxy-ethoxy)-ethoxy]-2-phenyl-pyrimidine-4-carbonyl}-amino)-butyryl]-piperazine-1-carboxylic acid ethyl ester] | 108 nM |
| CCCCOC(=O)N1CCN(C(=O)[C@H](CCC(=O)OC(C)(C)C)NC(=O)c2cc(O[C@@H]3CCOC3)nc(-c3ccccc3)n2)CC1 [Example 36, 4-[(S)-4-tert-butoxycarbonyl-2-({2-phenyl-6-[(R)-(tetrahydro-furan-3-yl)oxy]-pyrimidine-4-carbonyl}-amino)-butyryl]-piperazine-1-carboxylic acid butyl ester] | 448 nM |
| CCCCOC(=O)N1CCN(C(=O)[C@H](CCC(=O)O)NC(=O)c2cc(OC3CCNCC3)nc(-c3ccccc3)n2)CC1 [Example 37, 4-((S)-4-carboxy-2-{[2-phenyl-6-(piperidin-4-yloxy)-pyrimidine-4-carbonyl]-amino}-butyryl)-piperazine-1-carboxylic acid butyl ester] | 71 nM |
| CCCCOC(=O)N1CCN(C(=O)[C@H](CCC(=O)OC(C)(C)C)NC(=O)c2cc(OC3CCNCC3)nc(-c3ccccc3)n2)CC1 [Example 38, 4-((S)-4-tert-butoxycarbonyl-2-{[2-phenyl-6-(piperidin-4-yloxy)-pyrimidine-4-carbonyl]-amino}-butyryl)-piperazine-1-carboxylic acid butyl ester] | 13000 nM |
